According to ChEMBL document CHEMBL6182945, “MMAE-Based Peptide-Drug Conjugates Targeting GPC3 for Precision Chemoradiotherapy in Hepatocellular Carcinoma” (J Med Chem, 2025):
One block for each compound: values may come before it. Activity calls are given as the source filed them. No cut-off for these calls is given here. Starred links: 1 amine or outer side, 2 acyl side, 3 side chain; linkers in the order of their positions; H or OH if unused. Positions of bridges follow the written chain, without caps; N, C: chain ends. Non-standard residues stand in square brackets, D forms with d. Residues, ends and D or L forms follow the SMILES beside them. Chains are numbered I, II in the order given. *: point of attachment. Hexanoyl(6-succinimido-3yl) = O=C1CC([*:1])C(=O)N1CCCCCC(=O)[*:2]; Dolaproine = CO[C@@H]([C@@H]1CCCN1)[C@@H](C)C(=O)O; Dil = CC[C@H](C)[C@H](NC)[C@@H](CC(=O)O)OC; PABC = O=C(OCc1ccc(N[*:1])cc1)[*:2]; X1 = C[C@@H](N*)[C@@H](O)c1ccccc1; Cit = NC(=O)NCCC[C@H](N)C(=O)O; NMeV = CN[C@H](C(=O)O)C(C)C

Columns and labels:
[1] = molecular target: Glypican-3 (Homo sapiens) (UniProt P51654); experiment: Binding affinity to GPC3 in human Hep3B cells assessed as increase in fluorescence (red color) by immunofluorescence staining based assay; type: cell-based
[2] = molecular target: Glypican-3 (Homo sapiens) (UniProt P51654); experiment: Binding affinity to GPC3 in human HeLa cells assessed as increase in fluorescence (red color) measured after 4 hrs incubation by immunofluorescence staining based assay; type: cell-based
[3] = molecular target: Glypican-3 (Homo sapiens) (UniProt P51654); experiment: Binding affinity to GPC3 in human LX-2 cells assessed as increase in fluorescence (red color) measured after 4 hrs incubation by immunofluorescence staining based assay; type: cell-based
[4] = Drug uptake in human Huh-7 cells assessed as red fluorescence in inside the cells measured after 30 mins by live cell confocal imaging analysis; type: ADME, cell-based; conditions: huh-7, 0.5 h
[5] = Drug uptake in human Huh-7 cells assessed as green fluorescence in lysosomes measured after 30 mins co-staining with lysotracker by live cell confocal imaging analysis; type: ADME, cell-based; conditions: huh-7, 0.5 h
Hep 3B2 = experiment: Antiproliferative activity against GPC3-positive human Hep3B cells assessed as cytotoxicity measured after 72 hrs by MTT assay; type: functional, cell-based
Huh-7 = experiment: Antiproliferative activity against GPC3-positive human Huh-7 cells assessed as cytotoxicity measured after 72 hrs by MTT assay; type: functional, cell-based; conditions: Huh-7, 72 h
HeLa = experiment: Antiproliferative activity against GPC3-negative human HeLa cells assessed as cytotoxicity measured after 72 hrs by MTT assay; type: functional, cell-based
LX-2 = experiment: Antiproliferative activity against GPC3-negative human LX-2 cells assessed as cytotoxicity measured after 72 hrs by MTT assay; type: functional, cell-based; conditions: LX-2, 72 h

Sequence of Glypican-3 (Homo sapiens) (P51654 25-358 limits assumed): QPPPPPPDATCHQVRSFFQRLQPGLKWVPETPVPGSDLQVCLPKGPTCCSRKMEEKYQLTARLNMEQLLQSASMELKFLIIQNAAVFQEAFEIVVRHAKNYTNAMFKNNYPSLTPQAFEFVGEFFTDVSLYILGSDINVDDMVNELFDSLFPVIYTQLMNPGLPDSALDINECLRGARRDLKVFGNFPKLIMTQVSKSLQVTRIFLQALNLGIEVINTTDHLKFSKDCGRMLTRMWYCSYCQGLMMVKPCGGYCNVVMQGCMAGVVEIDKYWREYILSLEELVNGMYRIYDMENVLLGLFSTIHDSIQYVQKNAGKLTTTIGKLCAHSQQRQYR
Sequence of Glypican-3 (Homo sapiens) (P51654 359-554 limits assumed): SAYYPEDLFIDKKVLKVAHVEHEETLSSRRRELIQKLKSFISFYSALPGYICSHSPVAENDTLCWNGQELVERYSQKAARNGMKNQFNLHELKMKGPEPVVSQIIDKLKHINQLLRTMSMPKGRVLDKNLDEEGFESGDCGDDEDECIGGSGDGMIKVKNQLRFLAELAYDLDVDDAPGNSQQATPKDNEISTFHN

Activity [1]: Active; Compound Showed Minimal Binding
Activity [2]: Active; Compound Showed Minimal Binding
Activity [3]: Active
Structure (SMILES): CC[C@H](C)[C@@H]([C@@H](CC(=O)N1CCC[C@H]1[C@H](OC)[C@@H](C)C(=O)N[C@H](C)[C@@H](O)c1ccccc1)OC)N(C)C(=O)[C@@H](NC(=O)[C@H](C(C)C)N(C)C(=O)OCc1ccc(NC(=O)[C@H](CCCNC(N)=O)NC(=O)[C@H](NC(=O)CCCCCN2C(=O)CC(SC[C@H](NC(=O)CCCCC[N+]3=C(/C=C/C=C/C=C4\N(C)c5ccc6ccccc6c5C4(C)C)C(C)(C)c4c3ccc3ccccc43)C(=O)N[C@@H](CC(=O)O)C(=O)N[C@@H](Cc3ccc(O)cc3)C(=O)N[C@@H](CCC(=O)O)C(=O)N[C@@H](CCSC)C(=O)N[C@@H](Cc3cnc[nH]3)C(=O)N[C@@H](CC(C)C)C(=O)N[C@@H](Cc3c[nH]c4ccccc34)C(=O)N[C@@H](Cc3c[nH]c4ccccc34)C(=O)NCC(=O)N[C@H](C(=O)N[C@@H](CCC(=O)O)C(=O)N[C@@H](CC(C)C)C(N)=O)[C@H](C)O)C2=O)C(C)C)cc1)C(C)C (some centres undefined)

Drug uptake [4]: Active
Drug uptake [5]: Active
Structure (SMILES): CC[C@H](C)[C@@H]([C@@H](CC(=O)N1CCC[C@H]1[C@H](OC)[C@@H](C)C(=O)N[C@H](C)[C@@H](O)c1ccccc1)OC)N(C)C(=O)[C@@H](NC(=O)[C@H](C(C)C)N(C)C(=O)OCc1ccc(NC(=O)[C@H](CCCNC(N)=O)NC(=O)[C@@H](NC(=O)CCCCCN2C(=O)CC(SC[C@H](NC(=O)CCCCC[N+]3=C(/C=C/C=C/C=C4\N(C)c5ccc6ccccc6c5C4(C)C)C(C)(C)c4c3ccc3ccccc43)C(=O)N[C@@H](CO)C(=O)N[C@@H](CC(N)=O)C(=O)N[C@@H](CC(=O)O)C(=O)N[C@@H](CCCNC(=N)N)C(=O)N3CCC[C@H]3C(=O)N3CCC[C@H]3C(=O)N[C@@H](CC(N)=O)C(=O)N[C@H](C(=O)N[C@@H](CC(C)C)C(=O)N[C@@H](CCC(N)=O)C(=O)N[C@@H](CCCCN)C(=O)N[C@@H](CCCNC(=N)N)C(N)=O)[C@@H](C)CC)C2=O)C(C)C)cc1)C(C)C (some centres undefined)

Structure (SMILES): CC[C@H](C)[C@@H]([C@@H](CC(=O)N1CCC[C@H]1[C@H](OC)[C@@H](C)C(=O)N[C@H](C)[C@@H](O)c1ccccc1)OC)N(C)C(=O)[C@@H](NC(=O)[C@H](C(C)C)N(C)C(=O)OCc1ccc(NC(=O)[C@H](CCCNC(N)=O)NC(=O)[C@@H](NC(=O)CCCCCN2C(=O)CC(SC[C@H](N)C(=O)N[C@@H](Cc3ccc(O)cc3)C(=O)N[C@@H](Cc3ccccc3)C(=O)N[C@@H](CC(C)C)C(=O)N[C@H](C(=O)N[C@H](C(=O)N[C@@H](CCCNC(=N)N)C(=O)N[C@@H](CCC(N)=O)C(N)=O)[C@@H](C)O)[C@@H](C)O)C2=O)C(C)C)cc1)C(C)C (some centres undefined) (I: H-CYFLTTRQ-NH2 / II: V[Cit][PABC][NMeV]V[Dil][Dolaproine]-X1; linker I:1-II:N via Hexanoyl(6-succinimido-3yl))
IC50 (Hep 3B2): > 100 nM
IC50 (Huh-7): 30.9 nM
IC50 (HeLa): > 100 nM
IC50 (LX-2): > 100 nM
